In ChEMBL document CHEMBL2062468, “Identification of first proadrenomedullin N-terminal 20 peptide (PAMP) modulator by means of virtual screening and NMR interaction experiments” (Eur J Med Chem, 2012):
The source made the active and inactive calls. No cut-off for these calls is given here.

Experiments:
[1] = molecular target: T1, Pro-adrenomedullin (Homo sapiens) (UniProt P35318); test: Binding affinity to human synthetic proadrenomedullin N-terminal 20 peptide assessed as reduction in absorbance at 1 uM after 1 hr by monoclonal antibody method; design: scale not given: the % may be the effect or the level left
T1 sequence (whole entry): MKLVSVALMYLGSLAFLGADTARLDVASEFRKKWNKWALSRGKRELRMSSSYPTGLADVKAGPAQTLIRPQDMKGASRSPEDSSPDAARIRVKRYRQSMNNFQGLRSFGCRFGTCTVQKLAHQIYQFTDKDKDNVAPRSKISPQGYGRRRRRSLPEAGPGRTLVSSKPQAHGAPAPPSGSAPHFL

[2] = molecular target: T1, Pro-adrenomedullin (Homo sapiens); test: Binding affinity to human proadrenomedullin N-terminal 20 peptide at 500 uM by NMR spectroscopy
Mus musculus = test: Induction of angiogenesis in mouse athymic nude mouse implanted with matrigel containing compound at 1 uM measured after 11 days by direct in vivo angiogenesis assay; type: functional, organism-based
[3] = molecular target: T1, Pro-adrenomedullin (Homo sapiens); test: Binding affinity to human proadrenomedullin N-terminal 20 peptide assessed as fragmentation of PAMP protein at 500 uM by MS analysis

SMILES	Activity [1] [%]	further results
C[C@]12CC[C@@H]3c4ccc(O)cc4CC[C@H]3[C@@H]1CC[C@@H]2OC(=O)CCC1CCCC1	91.2	–
CC1c2ccccc2Cn2cc3c(c21)C(=O)c1cccc(OP(=O)(O)OCc2ccccc2)c1C3=O (stereo unspecified)	107	–
c1cc(NNc2cccc(-c3nnn[nH]3)c2)cc(-c2nnn[nH]2)c1	95.3	–
Cn1cnc([N+](=O)[O-])c1Sc1nc(N)nc2c1ncn2[C@H]1C[C@H](O)[C@@H](CO)O1	86.3	–
Cc1ccc2ccccc2c1CSc1nc(N)nc2c1ncn2CC(C)C	85.5	–
Clc1ccc2c(N3CCC(CCC4CCN(c5ncnc6cc(Cl)ccc56)CC4)CC3)ncnc2c1	88	–
O=C1C2C3C=CC(C2C(=O)N1CN1CCSCC1)C1C2C(=O)N(CN4CCSCC4)C(=O)C2C31 (stereo unspecified)	92.5	–
S=C(Nc1ccc2c(c1)Cc1ccccc1-2)Nc1ccc2c(c1)Cc1ccccc1-2	80.8	–
Cn1c(=O)c2c(ncn2CN2CCN(Cn3cnc4c3c(=O)n(C)c(=O)n4C)CC2)n(C)c1=O	76.4	–
C(CCc1nnc2c(n1)CCCC2)Cc1nnc2c(n1)CCCC2	96.5	–
S=C1NCN2CCN(CC2)CNC(=S)C(=S)NCN2CCN(CC2)CNC1=S	88	–
OC[C@H]1O[C@@H](n2cnc3c(SCc4ccccc4)ncnc32)[C@H](O)[C@@H]1O	109	–
CC(C)CCC[C@@H](C)[C@H]1CC[C@H]2[C@@H]3CCC4CC(N)CC[C@]4(C)[C@H]3CC[C@]12C (stereo partly specified)	106	–
O=C1c2ccccc2C(=O)c2c(NC3CCCCC3)ccc(Nc3ccc(S(=O)(=O)O)cc3)c21	101	–
O=S(=O)(O)c1ccc(-c2nnc(-c3ccccn3)nc2-c2ccc(S(=O)(=O)O)o2)o1	81.9	–
O=c1[nH]c2ccccc2n1CCCN1CCC(n2c(=O)[nH]c3cc(Cl)ccc32)CC1	80.1	–

SMILES	Activity [1] [%]	further results
O=C1C(Cl)=C(Sc2nnc3c4ccccc4c4ccccc4c3n2)C(=O)c2ccccc21	88.4	–
Nc1nc(SCc2ccccc2)c2ncn(Cc3ccccc3)c2n1	91.4	–
FC(F)(F)c1nc2ccc(SSc3ccc4nc(C(F)(F)F)[nH]c4c3)cc2[nH]1	109	–
CN1C(=O)C2N=C(C3CC(=O)CC(c4nc5c(=O)n(C)c(=O)n(C)c5[nH]4)N3)NC2N(C)C1=O (stereo unspecified)	85.1	Activity [2]: Active; Activity (Mus musculus): Active
CC1(C)CC(Nc2ccc(Nc3ccccc3)cc2)CC(C)(C)N1	96.2	–
O=C(O)CNC(=O)C1NC(C(F)(F)F)(C(F)(F)F)OC1(C(F)(F)F)C(F)(F)F (stereo unspecified)	92.1	–
C[C@]12CC[C@@H]3c4ccc(O)cc4CC[C@H]3[C@@H]1CC[C@@H]2OC(=O)CCc1ccccc1	98.4	–
O=C(O)c1c(-c2nccc3ccccc23)[nH]c(-c2ccccc2)c1S(=O)(=O)O	96.7	–
O=S(=O)(O)c1ccc2cc(/N=N/c3cc(S(=O)(=O)O)c4cccnc4c3O)ccc2c1	86.4	Activity [2]: Active; Activity [3]: Active
Nc1nc(-c2ccc3ccccc3c2)cc(-c2cc(-c3ccc4ccccc4c3)nc(N)n2)n1	104	–
O=[N+]([O-])c1ccc2c(c1)N=C1OC(c3c[nH]c4ccc(COc5ccccc5)cc34)C(O)=C1N2 (stereo unspecified)	92.7	–
Nc1ncnc2nc(-c3ccc(C[PH](c4ccccc4)(c4ccccc4)c4ccccc4)cc3)[nH]c12	76	–
Cc1ccc(-c2nc(-c3nccc4ccccc34)oc2-c2ccccc2)cc1	72.1	–
c1ccc2c(CN3CCN(Cc4c[nH]c5ccccc45)CC3)c[nH]c2c1	89.7	–
Nc1nc(-c2ccccc2)c(-c2ccccc2)c(-c2nc(N)nc(-c3ccccc3)c2-c2ccccc2)n1	109	–
c1ccc([PH](CC[PH](c2ccccc2)(c2ccccc2)c2ccccc2)(c2ccccc2)c2ccccc2)cc1	84.6	–
